Key:
[1] = system: monocrotaline-induced PAH; experiment: Monocrotaline-induced (MCT) PAH rat model, co-administration with imatinib; assay type: in vivo, Sprague-Dawley rats; settings: prolonged intravenous administration of imatinib alone
Procedure: CAR pharmacophore co-administration with imatinib in a rat model of monocrotaline-induced (MCT) PAH was used to observe the therapeutic utility of CAR for targeting PAH. CAR pharmacophore peptide was intravenously co-administered with 10 mg/kg or 50 mg/kg imatinib for 14 days starting 4 weeks post MCT induction.
PAH was induced in male Sprague-Dawley rats (300-330 g, 10 weeks old, Harlan) with a single intraperitoneal dose of monocrotaline (60 mg/kg). Treatment was initiated four weeks after PAH induction with either imatinib (50 mg/kg or 10 mg/kg) or imatinib (50 mg/kg or 10 mg/kg)+CAR pharmacophore combination (3 mg/kg) for 2 weeks with daily i.v. (FIGS. 22 and 23) or daily sublingual administration.

MDA-MB-231 cells = experiment: Triple negative breast cancer model in athymic nude mice; assay type: in vivo; settings: after 32 days; 3 mg/kg i.v. every other day, 15 doses
Procedure: In female athymic nude mice (CRL: NU(NCr)—Foxn1nu, 11 weeks old, Charles River), triple negative breast cancer tumors were initiated via subcutaneous injection of 5×10^6 MDA-MB-231 cells into the right flank. Tumor growth was monitored until the average tumor size approached 100-150 mm3. […] Animals were dosed intravenously every other day for a total of 15 doses. Tumor volume was measured using calipers twice per week and animals weighed daily on days 1-5 and then on a twice weekly schedule.

[2] = system: diseased kidney (anti-glomerular basement membrane antibody induced glomerular injury); experiment: CAR pharmacophore targeting in rat model of crescentic glomerular nephritis; assay type: in vivo; settings: i.v. 3.3 mg/kg B.W., 14 days after induction, kidneys harvested three hours after injection
Procedure: A rat model of crescentic glomerular nephritis (anti-glomerular basement membrane antibody induced glomerular injury) was used to observe the utility of CAR pharmacophore targeting in chronic kidney disease. Glomerulonephritis was induced in rat kidneys by i.v. injection of anti-glomerular basement membrane antibodies. 14 days after induction, CAR pharmacophore peptide or control ([…] SEQ ID NO: 34) peptide was i.v. injected at 3.3 mg/kg B.W. Kidneys were harvested three hours after CAR pharmacophore or control injection and Masson's trichrome (collagen) staining and fibronectin immunostaining were used to determine development of kidney disease and fibrosis formation.

LPS-induced sepsis = experiment: Survival in LPS mouse model of sepsis; assay type: in vivo, mice
Procedure: Fifty-percent of all mice with LPS-induced sepsis that are left untreated are dead within 48 hours. When these LPS mice are treated with clinically relevant doses of the common and experimental sepsis drugs hydrocortisone, antithrombin III or sivelestat, survival ranged from 40-56%, similar to current clinical outcomes. In contrast, when LPS mice were co-administered CAR at the same time as hydrocortisone, antithrombin III or sivelestat, experimental sepsis survival improved to 83-89%.
Injection of the bacterial protein, lipopolysaccharide (LPS), was used to induce sepsis in mice. Doses were given at 3, 6, 9, and 12 hours to match the clinical use of sivelestat. Survival was measured up to 48 hours after LPS injection. At 48 hours, the survival rate of CAR pharmacophore+sivelestat treated animals was 89% compared to 50% in both control and sivelestat only groups, representing a 78% increase in survival of animals treated with CAR pharmacophore (FIG. 12).
Sepsis was initiated and survival measured with doses given at 3 and 24 hours to match the clinical use of ATIII. […]
CAR pharmacophore dramatically improves survival in septic mice treated with hydrocortisone steroid. Sepsis was initiated and survival measured with doses given at 3 and 24 hours to match the clinical use of hydrocortisone. […]

[3] = system: lung, liver and kidney endothelium of septic animals; experiment: Scanning electron micrograph of lung, liver and kidney tissue in LPS sepsis; assay type: in vivo, mice
sepsis = settings: cited from earlier work
CHO cells = settings: prior experiments; linear truncated peptides; cited from earlier work
[4] = meta-analysis of 8 trials (Iwata et al., 2010)

With `Cc1ccc(NC(=O)c2ccc(CN3CCN(C)CC3)cc2)cc1Nc1nccc(-c2cccnc2)n1` [imatinib] the effect on bodyweight [1] was “significant adverse effect on bodyweight”.
In the case of `CC(=O)O[C@H]1C(=O)[C@@]2(C)[C@H]([C@H](OC(=O)c3ccccc3)[C@]3(O)C[C@H](OC(=O)[C@H](O)[C@@H](NC(=O)c4ccccc4)c4ccccc4)C(C)=C1C3(C)C)[C@]1(OC(C)=O)CO[C@@H]1C[C@@H]2O` [paclitaxel], the “bodyweight gain relative to average starting bodyweight” value (MDA-MB-231 cells) is reported as 5%.
For CGGGGGGGC [control peptide], the “accumulation in the diseased kidney” value [2] was “largely cleared from the kidney”.
In the case of `CC(C)(C)C(=O)Oc1ccc(S(=O)(=O)Nc2ccccc2C(=O)NCC(=O)O)cc1` [sivelestat], the survival rate (LPS-induced sepsis; 48 hours after LPS injection, doses at 3, 6, 9, and 12 hours) is reported as 50%, the “pulmonary arteriole endothelium degradation (SEM, lung)” value [3] is reported as “did not prevent degradation of the continuous pulmonary arteriole endothelium” and the “sieve plates (SEM, liver)” value [3] is reported as “not able to prevent defenestration of sieve plates”. The “tissue damage (SEM, kidney)” value [3] was “did not prevent gross tissue damage”, the 180 day mortality (sepsis; [4]) was “possibly increased” and the mechanical ventilation days (sepsis; [4]) was “no difference”. For the same compound, the “mortality rate within 28-30 days after randomization” value (sepsis; [4]) was “no difference”.
For `C[C@]12CCC(=O)C=C1CC[C@@H]1[C@@H]2[C@@H](O)C[C@@]2(C)[C@H]1CC[C@]2(O)C(=O)CO` [hydrocortisone], the survival rate (LPS-induced sepsis; 48 hours, hydrocortisone only, doses at 3 and 24 hours) is listed as 56%, the super infection (sepsis; low-dose hydrocortisone therapy, septic shock) is listed as “more episodes of super infection” and the “survival in patients with septic shock” value (sepsis; low-dose hydrocortisone therapy) is listed as “did not improve survival”.
For CARSKNK [SEQ ID NO: 24], the “cell binding and tissue homing” value (CHO cells) is given as “highly active”.

From US11642391B2, “Compositions containing a pharmacophore with selectivity to diseased tissue and methods of making same” (Vascular BioSciences, priority 2014, dated 2023)
